Data on one compound can be found in publication PMC3134468, “Functions of Some Capsular Polysaccharide Biosynthetic Genes in Klebsiella pneumoniae NTUH K-2044” (PLoS ONE, 2011).

Molecules are shown by their SMILES.

This experiment deals with T1, WcaG (KP3709) (Klebsiella pneumoniae, UniProt A0ACD7U4D6).
T1 construct: His-tagged (pET28a), expressed in E. coli BL21 star (DE3)
In words: HPLC product analysis. It counts as biochemical. Conditions: coupled with Gmd from GDP-mannose, pH 8.0. The source says:
HPLC product analysis on WcaG (KP3709) | GDP-mannose+NADPH+KP3711+KP3709

For `NC(=O)C1=CN([C@@H]2O[C@H](COP(=O)(O)OP(=O)(O)OC[C@H]3O[C@@H](n4cnc5c(N)ncnc54)[C@H](OP(=O)(O)O)[C@@H]3O)[C@@H](O)[C@H]2O)C=CC1` [NADPH], the HPLC product analysis result is reported as “GDP-mannose+NADPH+KP3711+KP3709”.
